We go through one molecule from article PMC8205030, “Methoxy and bromo scans on N-(5-methoxyphenyl) methoxybenzenesulphonamides reveal potent cytotoxic compounds, especially against the human breast adenocarcinoma MCF7 cell line” (Journal of Enzyme Inhibition and Medicinal Chemistry, 2021).

In general, pIC50 refers to the negative decadic logarithm of the IC50, by convention in mol/L.

One assay relates to HeLa cells. Put plainly: Apoptotic cell death quantification (Annexin V-FITC/PI), HeLa. The conditions noted are these: 72 h. It counts as cell-based, human. Here is the method:
(§1) MCF7, HeLa, and HT-29 apoptotic cells were quantified using an Annexin V-FITC/PI apoptosis detection kit (Immunostep, Salamanca, Spain) according to the manufacturer’s guidelines. 1.5 ml/well of cells in the exponential growth phase at 2 × 10^4 cells/mL were seeded onto 12-well plates and left to attach overnight. After 24 h incubation, cells were treated with compound 25 at 87.5 or 175 nM. 72 h post-treatment, attached and floating cells of treated and untreated wells were collected, centrifuged, resuspended in the Annexin V binding buffer, and stained with Annexin V-FITC/PI. Cells were then incubated in darkness at room temperature for 15 min and a total of 30,000 cells were acquired and analysed using the BD Accuri™ C6 Plus Flow Cytometer and Software (version 1.0.264.21, BD Biosciences, San José, CA, USA), respectively. Compounds were dissolved in DMSO and the final solvent concentrations never exceeded 0.5% (v/v). Control wells included cells with 0.5% (v/v) DMSO.

Assay [1] concerns HEK293 (human embryonic kidney) cells. Put plainly: Cell growth assay (XTT), non-tumorigenic HEK293. It counts as cell-based. Here is the method: The presence of mycoplasma was routinely checked with MycoAlert kit (Lonza-Cambrex) and only mycoplasma-free cells were used in the experiments. Tumour cell lines were kindly provided by Dr Faustino Mollinedo from Centro de Investigaciones Biológicas Margarita Salas, Madrid, Spain. To determine cell growth, cells in exponential growth phase were seeded (100 µL/well in 96-well plates) with appropriate cell concentration (1.5 × 10^4 cells/mL for MCF7, HeLa and HEK-293 and 3 × 10^4 cells/mL for HT-29) in complete DMEM or RPMI 1640 medium (see above) at 37 °C and 5% CO2 atmosphere. After 24 h incubation, to allow cells to attach to the plates, all compounds were added at 1 µM concentration (10 µL/well in 96-well plates) and the effect on the proliferation was evaluated 72 h post-treatment. Compounds showing antiproliferative effects at tested concentration were selected for IC50 calculation (50% inhibitory concentration compared to the untreated controls) from 10^−5 to 10^−10 M concentration. Nonlinear curves fitting the experimental data were carried out for each compound. […] A freshly prepared mixture solution of XTT labelling reagent with 0.02% (v/v) PMS (N-methyl-dibenzopyrazine methyl sulfate) electron coupling reagent was added to cells (50 µL/well in 96-well plates, the total volume of 160 µL/well) and were incubated during the corresponding time according to each cell line (4 h for MCF7 and HeLa and 6 h for HT-29 and HEK-293) in a humidified atmosphere (37 °C, 5% CO2). The absorbance of the formazan product generated was measured at a test wavelength of 450 nm using a multi-well plate reader (Ultra Evolution, Tecan, Männedorf, Suiza). Compounds were dissolved in DMSO and the final solvent concentrations never exceeded 0.5% (v/v). The control wells included treated cells with 0.5% (v/v) DMSO and the positive control. 10 µM verapamil was included as a control for the HT-29 cell line. Measurements were performed in triplicate, and each experiment was repeated three times.
On the technique in general: Formazan colour is commonly taken as a measure of viable cells.

The next assay has as its system HT-29 cells. Put plainly: Apoptotic cell death quantification (Annexin V-FITC/PI), HT-29. It counts as cell-based, human. The following applies: for Early apoptosis / Late apoptosis / Live (AnV–/PI–) / Necrosis: 72 h; for Apoptotic response: HT-29, 72 h. The method, then:
as §1

Assay [2] relates to HeLa (human cervical carcinoma) cells. Nature of the assay: Cell growth assay (XTT), HeLa. It counts as cell-based. The following applies: 72 h drug exposure, read-out: Antiproliferative activity IC50 HeLa. Summed up: (§2)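 Cells (1.5 × 10^4 cells/mL for MCF7, HeLa, HEK293; 3 × 10^4 cells/mL for HT-29) attached 24 h, then treated 72 h at 37 °C, 5% CO2. Screened at 1 µM; IC50 versus untreated controls from 10^−5 to 10^−10 M by nonlinear fit. XTT/PMS absorbance at 450 nm after 4 h (MCF7, HeLa) or 6 h (HT-29, HEK293); HT-29 with 10 µM verapamil.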

The subject of assay [3] is MCF7 (human breast carcinoma) cells. Put plainly: Cell growth assay (XTT), MCF7. It counts as cell-based. The conditions noted are these: Homo sapiens, MCF7; 72 h drug exposure, XTT; read-out: Antiproliferative activity IC50 MCF7. Summed up:
as §2

pIC50: −log10 of the molar value.

As to `COc1ccc(S(=O)(=O)N(CC#N)c2cc(OC)c(Br)cc2OC)cc1` [Compound 25, N-(4-bromo-2,5-dimethoxyphenyl)-N-(cyanomethyl)-4-methoxybenzenesulphonamide], the Early apoptosis in the assay with HeLa cells (87.5 nM) was determined as 52.3%; in the assay with HeLa cells (175 nM), 47.5%; with HT-29 cells (HT-29, 87.5 nM), 16.4%; in the assay on HT-29 cells (HT-29, 175 nM) it was 20.4%. The Late apoptosis came out at 39.7% with HeLa cells (87.5 nM); 45.3% in the assay with HeLa cells (175 nM); 6.8% in the assay on HT-29 cells (HT-29, 87.5 nM); 15.3% in the assay on HT-29 cells (HT-29, 175 nM). For the same molecule, the “Live (AnV–/PI–)” value in the assay with HeLa cells (87.5 nM) is 6.5%; with HeLa cells (175 nM), 4.1%; in the assay with HT-29 cells (HT-29, 87.5 nM) it was 76.2%; with HT-29 cells (HT-29, 175 nM), 61.7%. Besides, the Necrosis came to 1.5% with HeLa cells (87.5 nM); 3.1% in the assay with HeLa cells (175 nM); 0.7% in the assay on HT-29 cells (HT-29, 87.5 nM); 2.5% in the assay on HT-29 cells (HT-29, 175 nM). This molecule also yielded an Apoptotic profile in the assay on HeLa cells (87.5 and 175 nM) greater than 90%. In assay [1], the “Selectivity index HEK293 vs HeLa and MCF7 tumour cells” value was 0.5 to 2 fold. Further, the pIC50 was 7.35 in assay [1] (Homo sapiens, HEK293, non-tumorigenic cell line, 72 h, XTT, read-out: Antiproliferative activity IC50 HEK293); 7.44 in assay [2]; 7.07 in assay [3]. Also, the Apoptotic response in the assay with HT-29 cells (lower end of printed span (87.5 nM)) came out at 23%; with HT-29 cells (upper end of printed span (175 nM)), 36%.
